From US6355799B1, “Substituted benzene compounds, process for their preparation, and herbicidal and defoliant compositions containing them” (ISK Americas Incorporated, priority 1997, dated 2002)

What was measured:
Type in all cases: in vivo
[1] = test system: upland rice (Oryza sp., var. Tebonnet, RICE); assay: Post-emerge test, crop safety; settings: 14 days after application; for Post-emerge phytotoxicity rating RICE (crop damage): rating scale 0-100 (0 no damage, 100 complete death)
Summary of the method: (§1)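 Fourteen days after spraying, crop and weed injury was graded visually from 0, no effect, to 100, every plant dead. Test substances were dissolved in acetone and applied at 15–1000 g ai/ha with a flat-fan nozzle. Application was either pre-emergence, one day after sowing, or post-emergence at the 2–3 leaf stage.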

[2] = test system: field corn (Zea mays L., var. Dekalb 535, CORN); assay: Post-emerge test, crop safety; settings: 14 days after application; for Post-emerge phytotoxicity rating CORN (crop damage): rating scale 0-100 (0 no damage, 100 complete death)
Summary of the method: as §1

[3] = test system: common ragweed (Ambrosia artemisizfolia L., AMBEL); assay: Post-emerge test, greenhouse herbicide activity screening; settings: 14 days after application; for Post-emerge Herbicidal Activity, phytotoxicity rating AMBEL: rating scale 0-100 (0 no damage, 100 complete death)
Summary of the method: (§2)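 Rating: 0–100 visual injury, 14 DAA. Application: acetone, 187 l/ha, 15–1000 g ai/ha, flat-fan track sprayer with nozzle 40–45 cm above soil or canopy. Post-emerge runs used 0.25% v/v surfactant on 2–3 leaf plants.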

[4] = test system: redroot pigweed (Amaranthus retroflexus, AMARE); assay: as above; settings: 14 days after application; for Post-emerge Herbicidal Activity, phytotoxicity rating AMARE: rating scale 0-100 (0 no damage, 100 complete death)
Summary of the method: as §2

[5] = test system: johnsongrass (Sorghum halepense, SORHA); assay: as above; settings: 14 days after application; for Post-emerge Herbicidal Activity, phytotoxicity rating SORHA: rating scale 0-100 (0 no damage, 100 complete death)
Summary of the method: as §2

[6] = test system: lambsquarters (Chenopodium album, CHEAL); assay: as above; settings: 14 days after application; for Post-emerge Herbicidal Activity, phytotoxicity rating CHEAL: rating scale 0-100 (0 no damage, 100 complete death)
Summary of the method: as §2

[7] = test system: large crabgrass (Digitaria sanguinalis, DIGSA); assay: as above; settings: 14 days after application; for Post-emerge Herbicidal Activity, phytotoxicity rating DIGSA: rating scale 0-100 (0 no damage, 100 complete death)
Summary of the method: as §2

[8] = test system: ivyleaf morningglory (Ipomoea hederacea, IPOHE); assay: as above; settings: 14 days after application; for Post-emerge Herbicidal Activity, phytotoxicity rating IPOHE: rating scale 0-100 (0 no damage, 100 complete death)
Summary of the method: as §2

[9] = test system: green foxtail (Setaria viridis, SETVI); assay: as above; settings: 14 days after application; for Post-emerge Herbicidal Activity, phytotoxicity rating SETVI: rating scale 0-100 (0 no damage, 100 complete death)
Summary of the method: as §2

[10] = test system: barnyardgrass (Echinochloa crus-galli, ECHCG); assay: as above; settings: 14 days after application; for Post-emerge Herbicidal Activity, phytotoxicity rating ECHCG: rating scale 0-100 (0 no damage, 100 complete death)
Summary of the method: as §2

[11] = test system: sicklepod (Cassia obtusifolia, CASOB); assay: as above; settings: 14 days after application; for Post-emerge Herbicidal Activity, phytotoxicity rating CASOB: rating scale 0-100 (0 no damage, 100 complete death)
Summary of the method: as §2

[12] = test system: velvetleaf (Abutilon theophrasti, ABUTH); assay: as above; settings: 14 days after application; for Post-emerge Herbicidal Activity, phytotoxicity rating ABUTH: rating scale 0-100 (0 no damage, 100 complete death)
Summary of the method: as §2

[13] = test system: common ragweed (Ambrosia artemisizfolia L., AMBEL); assay: Pre-emerge test, greenhouse herbicide activity screening; settings: for Pre-emerge herbicidal activity, phytotoxicity rating AMBEL: rating scale 0-100, 14 days after application
Summary of the method: as §1

[14] = test system: johnsongrass (Sorghum halepense, SORHA); assay: as above; settings: for Pre-emerge herbicidal activity, phytotoxicity rating SORHA: rating scale 0-100, 14 days after application
Summary of the method: as §1

[15] = test system: lambsquarters (Chenopodium album, CHEAL); assay: as above; settings: for Pre-emerge herbicidal activity, phytotoxicity rating CHEAL: rating scale 0-100, 14 days after application
Summary of the method: as §1

[16] = test system: large crabgrass (Digitaria sanguinalis, DIGSA); assay: as above; settings: for Pre-emerge herbicidal activity, phytotoxicity rating DIGSA: rating scale 0-100, 14 days after application
Summary of the method: as §1

[17] = test system: ivyleaf morningglory (Ipomoea hederacea, IPOHE); assay: as above; settings: for Pre-emerge herbicidal activity, phytotoxicity rating IPOHE: rating scale 0-100, 14 days after application
Summary of the method: as §1

[18] = test system: green foxtail (Setaria viridis, SETVI); assay: as above; settings: for Pre-emerge herbicidal activity, phytotoxicity rating SETVI: rating scale 0-100, 14 days after application
Summary of the method: as §1

[19] = test system: barnyardgrass (Echinochloa crus-galli, ECHCG); assay: as above; settings: for Pre-emerge herbicidal activity, phytotoxicity rating ECHCG: rating scale 0-100, 14 days after application
Summary of the method: as §1

[20] = test system: sicklepod (Cassia obtusifolia, CASOB); assay: as above; settings: for Pre-emerge herbicidal activity, phytotoxicity rating CASOB: rating scale 0-100, 14 days after application
Summary of the method: as §1

[21] = test system: velvetleaf (Abutilon theophrasti, ABUTH); assay: as above; settings: for Pre-emerge herbicidal activity, phytotoxicity rating ABUTH: rating scale 0-100, 14 days after application
Summary of the method: as §1

[22] = test system: redroot pigweed (Amaranthus retroflexus, AMARE); assay: as above; settings: for Pre-emerge herbicidal activity, phytotoxicity rating AMARE: rating scale 0-100, 14 days after application
Summary of the method: as §2

[23] = test system: upland rice (Oryza sp., var. Tebonnet, RICE); assay: Pre-emerge test, crop safety; settings: for Pre-emerge phytotoxicity rating, crop damage RICE: rating scale 0-100, 14 days after application
Summary of the method: (§3)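 Compounds in acetone were track-sprayed at 187 l/ha, 15–1000 g ai/ha, onto sandy loam pots. Pre-emerge seeds were sown one day before spraying, with surface watering afterwards. Post-emerge plants were at the 2–3 leaf stage and sprayed with 0.25% v/v non-ionic surfactant. Injury was rated 0–100 at 14 days.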

[24] = test system: field corn (Zea mays L., var. Dekalb 535, CORN); assay: Pre-emerge test, crop safety; settings: for Pre-emerge phytotoxicity rating, crop damage CORN: rating scale 0-100, 14 days after application
Summary of the method: as §3

[25] = 63 g ai/ha, phytotoxicity rating 0-100 (0 no damage, 100 complete death)
[26] = 63 g ai/ha, pre-emerge, rated 14 days after application, 0 = no damage, 100 = complete death

COc1c(Cl)cc(F)c(-n2c(=O)c([N+](=O)[O-])c(C(F)(F)F)n(C)c2=O)c1[N+](=O)[O-] [Compound 1-9]
70: Post-emerge Herbicidal Activity ECHCG [10, 25]
95: Pre-emerge crop damage RICE (phytotoxicity rating, scale 0-100) [23, 26]
90: Post-emerge Herbicidal Activity AMBEL [3, 25] | Post-emerge Herbicidal Activity SORHA [5, 25] | Post-emerge Herbicidal Activity DIGSA [7, 25] | Post-emerge Herbicidal Activity SETVI [9, 25] | Post-emerge Herbicidal Activity CASOB [11, 25] | Pre-emerge crop damage CORN (phytotoxicity rating, scale 0-100) [24, 26]
40: Post-emerge Herbicidal Activity RICE (crop damage) [1, 25]
30: Post-emerge Herbicidal Activity CORN (crop damage) [2, 25]
100: Post-emerge Herbicidal Activity AMARE [4, 25] | Post-emerge Herbicidal Activity CHEAL [6, 25] | Post-emerge Herbicidal Activity IPOHE [8, 25] | Post-emerge Herbicidal Activity ABUTH [12, 25] | Pre-emerge Herbicidal Activity AMBEL (phytotoxicity rating, scale 0-100) [13, 26] | Pre-emerge Herbicidal Activity SORHA (phytotoxicity rating, scale 0-100) [14, 26] | Pre-emerge Herbicidal Activity CHEAL (phytotoxicity rating, scale 0-100) [15, 26] | Pre-emerge Herbicidal Activity DIGSA (phytotoxicity rating, scale 0-100) [16, 26] | Pre-emerge Herbicidal Activity IPOHE (phytotoxicity rating, scale 0-100) [17, 26] | Pre-emerge Herbicidal Activity SETVI (phytotoxicity rating, scale 0-100) [18, 26] | Pre-emerge Herbicidal Activity ECHCG (phytotoxicity rating, scale 0-100) [19, 26] | Pre-emerge Herbicidal Activity CASOB (phytotoxicity rating, scale 0-100) [20, 26] | Pre-emerge Herbicidal Activity ABUTH (phytotoxicity rating, scale 0-100) [21, 26] | Pre-emerge Herbicidal Activity AMARE (phytotoxicity rating, scale 0-100) [22, 26]

COc1c(Cl)cc(F)c(-n2c(=O)cc(C(F)(F)F)n(C)c2=O)c1CC(Cl)C(=O)OCC(F)(F)F (stereo not drawn) [14-21]
75: Pre-emerge herbicidal activity, phytotoxicity rating CHEAL ([15]; 250 g ai/ha)
30: Post-emerge Herbicidal Activity, phytotoxicity rating CASOB ([11]; Rate 63 g ai/ha)
95: Post-emerge Herbicidal Activity, phytotoxicity rating AMBEL ([3]; Rate 250 g ai/ha) | Post-emerge Herbicidal Activity, phytotoxicity rating CHEAL ([6]; Rate 250 g ai/ha) | Post-emerge Herbicidal Activity, phytotoxicity rating ABUTH ([12]; Rate 250 g ai/ha) | Pre-emerge herbicidal activity, phytotoxicity rating AMARE ([22]; 250 g ai/ha)
99: Post-emerge Herbicidal Activity, phytotoxicity rating ECHCG ([10]; Rate 63 g ai/ha)
45: Post-emerge phytotoxicity rating RICE (crop damage) ([1]; Rate 250 g ai/ha)
90: Post-emerge Herbicidal Activity, phytotoxicity rating AMARE ([4]; Rate 63 g ai/ha)
20: Pre-emerge herbicidal activity, phytotoxicity rating CHEAL ([15]; 63 g ai/ha) | Pre-emerge herbicidal activity, phytotoxicity rating ECHCG ([19]; 250 g ai/ha) | Pre-emerge phytotoxicity rating, crop damage RICE ([23]; 250 g ai/ha)
0: Pre-emerge herbicidal activity, phytotoxicity rating AMBEL ([13]; 63 g ai/ha) | Pre-emerge herbicidal activity, phytotoxicity rating SORHA ([14]; 63 g ai/ha) | Pre-emerge herbicidal activity, phytotoxicity rating DIGSA ([16]; 63 g ai/ha) | Pre-emerge herbicidal activity, phytotoxicity rating IPOHE ([17]; 63 g ai/ha) | Pre-emerge herbicidal activity, phytotoxicity rating IPOHE ([17]; 250 g ai/ha) | Pre-emerge herbicidal activity, phytotoxicity rating SETVI ([18]; 63 g ai/ha) | Pre-emerge herbicidal activity, phytotoxicity rating SETVI ([18]; 250 g ai/ha) | Pre-emerge herbicidal activity, phytotoxicity rating ECHCG ([19]; 63 g ai/ha) | Pre-emerge herbicidal activity, phytotoxicity rating CASOB ([20]; 63 g ai/ha) | Pre-emerge phytotoxicity rating, crop damage RICE ([23]; 63 g ai/ha) | Pre-emerge phytotoxicity rating, crop damage CORN ([24]; 63 g ai/ha)
40: Post-emerge Herbicidal Activity, phytotoxicity rating IPOHE ([8]; Rate 63 g ai/ha) | Post-emerge Herbicidal Activity, phytotoxicity rating SETVI ([9]; Rate 250 g ai/ha) | Pre-emerge herbicidal activity, phytotoxicity rating AMBEL ([13]; 250 g ai/ha) | Pre-emerge herbicidal activity, phytotoxicity rating ABUTH ([21]; 63 g ai/ha)
60: Post-emerge Herbicidal Activity, phytotoxicity rating CASOB ([11]; Rate 250 g ai/ha) | Pre-emerge herbicidal activity, phytotoxicity rating AMARE ([22]; 63 g ai/ha)
100: Post-emerge phytotoxicity rating CORN (crop damage) ([2]; Rate 250 g ai/ha) | Post-emerge Herbicidal Activity, phytotoxicity rating AMARE ([4]; Rate 250 g ai/ha) | Post-emerge Herbicidal Activity, phytotoxicity rating ECHCG ([10]; Rate 250 g ai/ha) | Post-emerge Herbicidal Activity, phytotoxicity rating ABUTH ([12]; Rate 63 g ai/ha) | Pre-emerge herbicidal activity, phytotoxicity rating ABUTH ([21]; 250 g ai/ha)
50: Post-emerge phytotoxicity rating CORN (crop damage) ([2]; Rate 63 g ai/ha) | Post-emerge Herbicidal Activity, phytotoxicity rating AMBEL ([3]; Rate 63 g ai/ha) | Post-emerge Herbicidal Activity, phytotoxicity rating IPOHE ([8]; Rate 250 g ai/ha)
10: Post-emerge phytotoxicity rating RICE (crop damage) ([1]; Rate 63 g ai/ha) | Post-emerge Herbicidal Activity, phytotoxicity rating SORHA ([5]; Rate 63 g ai/ha) | Post-emerge Herbicidal Activity, phytotoxicity rating SETVI ([9]; Rate 63 g ai/ha) | Pre-emerge herbicidal activity, phytotoxicity rating CASOB ([20]; 250 g ai/ha)
35: Pre-emerge herbicidal activity, phytotoxicity rating SORHA ([14]; 250 g ai/ha)
98: Post-emerge Herbicidal Activity, phytotoxicity rating DIGSA ([7]; Rate 250 g ai/ha)
70: Post-emerge Herbicidal Activity, phytotoxicity rating SORHA ([5]; Rate 250 g ai/ha) | Post-emerge Herbicidal Activity, phytotoxicity rating CHEAL ([6]; Rate 63 g ai/ha) | Post-emerge Herbicidal Activity, phytotoxicity rating DIGSA ([7]; Rate 63 g ai/ha) | Pre-emerge herbicidal activity, phytotoxicity rating DIGSA ([16]; 250 g ai/ha) | Pre-emerge phytotoxicity rating, crop damage CORN ([24]; 250 g ai/ha)
